Earlier results as cited in US9079157B2, “Protein removal agent” (Thermo Fisher Scientific Baltics, UAB, priority 2012, dated 2015).

Test system: enzymes
Conditions: referenced in the BRENDA database

Row | SMILES | Number of inhibited enzymes
1 | O=C(O)CCCCCC(=O)O [pimelic, pimelic acid] | 3
2 | O=C(O)C(=O)O [oxalic, oxalic acid] | 119
3 | O=C(O)CCCCCCC(=O)O [suberic, suberic acid] | 0
4 | O=C(O)CCC(=O)O [succinic, succinic acid] | 115
5 | O=C(O)CCCC(=O)O [glutaric, glutaric acid] | 25
6 | O=C(O)CC(O)(CC(=O)O)C(=O)O [citric acid] | 203
7 | O=C(O)CCCCC(=O)O [adipic, adipic acid] | 10
8 | O=C(O)CC(=O)O [malonic, malonic acid] | 63
